Assay results taken from patent US6486149B2, “Composition comprising a crystallographically stable, amorphous cephalosporin and processes for the preparation thereof” (Meiji Seika Kaisha Ltd., priority 1998, dated 2002).
≈ marks a conversion by molar mass, not a printed value.

Experiment: Solubility in acidic water (pH 1.2) at 37° C. (Test Example 1)
Assay type: physicochemical
Settings: acidic water (pH 1.2) containing HCl, simulated gastric fluid, thermodynamic from solid, acidic water (pH 1.2) containing about 1N HCl, stirred 2 hours, filtered through 1 μm membrane, read-out: solubility of Cefditoren pivoxil in acidic water
Protocol: The solid particles present in the composition of this invention were tested for the measurement of their water-solubility as shown in Test Example given hereinafter.
There was taken as a sample one gram of the yellow-colored powder (the composition of this invention), which was obtained in Example 6 above, and which consisted essentially of the particles as formed substantially from a homogeneous mixture comprising the amorphous substance of Cefditoren pivoxil and hydroxypropylmethyl cellulose, and in which the surface layer of said particles contained additionally hydroxypropyl cellulose. The sample so taken was placed in 250 ml of an acidic water (pH 1.2) containing about […] at 37° C. and stirred at 37° C. for 2 hours. The resulting aqueous solution was passed through a millipore (1 μm) membrane filter to remove the insoluble solid therefrom. The transparent aqueous solution here obtained, which contained Cefditoren pivoxil and the water-soluble cellulose derivatives above-mentioned as dissolved therein, was then measured in respect of the concentration of the Cefditoren pivoxil. […]

For `CO/N=C(\C(=O)NC1C(=O)N2C(C(=O)OCOC(=O)C(C)(C)C)=C(/C=C\c3scnc3C)CS[C@H]12)c1csc(N)n1` (stereo partly shown) [7-[(Z)-2-(2-aminothiazol-4-yl)-2-methoxyiminoacetamido]-3-[(Z)-2-(4-methylthiazol-5-yl)ethenyl]-3-cephem-4-carboxylic acid pivaloyloxymethyl ester], the solubility at 2 h was ~400 µg/mL (≈ 644 µM).
